Test results from ChEMBL document CHEMBL1139149, “Discovery of tertiary aminoacids as dual PPARalpha/gamma agonists-I” (Bioorg Med Chem Lett, 2007).
Calls of active or inactive are those of the source. The calls are words filed in the database; no cut-off is given here.

What was measured:
[1] = molecular target: T1, Peroxisome proliferator-activated receptor alpha (Homo sapiens, UniProt Q07869); assay: Agonist activity at PPARalpha receptor expressed in HEK293 cells by GAL4 transactivation assay; type: functional, cell-based
T1 sequence (Q07869 whole entry): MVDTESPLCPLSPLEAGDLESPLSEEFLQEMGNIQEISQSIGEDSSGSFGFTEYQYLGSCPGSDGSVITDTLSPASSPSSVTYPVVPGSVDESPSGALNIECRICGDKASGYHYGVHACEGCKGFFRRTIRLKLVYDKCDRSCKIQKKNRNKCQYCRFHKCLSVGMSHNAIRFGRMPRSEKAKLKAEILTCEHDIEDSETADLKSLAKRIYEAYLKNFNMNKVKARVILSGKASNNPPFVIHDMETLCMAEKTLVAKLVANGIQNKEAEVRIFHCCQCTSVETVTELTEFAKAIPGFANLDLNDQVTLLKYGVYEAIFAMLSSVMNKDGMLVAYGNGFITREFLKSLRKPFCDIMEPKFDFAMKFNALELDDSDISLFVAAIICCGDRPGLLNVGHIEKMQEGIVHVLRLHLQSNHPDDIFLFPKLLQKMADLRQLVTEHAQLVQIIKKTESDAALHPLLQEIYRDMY

[2] = molecular target: T2, Peroxisome proliferator-activated receptor gamma (Homo sapiens, UniProt P37231)
T2 sequence (P37231 whole entry): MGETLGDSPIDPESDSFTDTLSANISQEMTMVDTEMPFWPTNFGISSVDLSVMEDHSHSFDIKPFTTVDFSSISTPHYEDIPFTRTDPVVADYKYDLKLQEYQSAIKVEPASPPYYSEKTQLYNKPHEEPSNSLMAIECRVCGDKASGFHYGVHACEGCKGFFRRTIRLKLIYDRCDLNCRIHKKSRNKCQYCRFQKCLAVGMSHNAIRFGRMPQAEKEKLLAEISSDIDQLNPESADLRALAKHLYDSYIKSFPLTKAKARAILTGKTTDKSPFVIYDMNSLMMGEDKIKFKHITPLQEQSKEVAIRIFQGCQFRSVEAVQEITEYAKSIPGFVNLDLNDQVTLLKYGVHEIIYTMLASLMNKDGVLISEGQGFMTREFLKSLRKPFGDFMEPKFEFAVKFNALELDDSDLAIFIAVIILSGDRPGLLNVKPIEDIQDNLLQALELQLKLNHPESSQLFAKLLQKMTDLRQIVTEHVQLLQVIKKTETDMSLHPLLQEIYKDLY
Description: Agonist activity at PPARgamma receptor expressed in HEK293 cells by GAL4 transactivation assay

[3] = molecular target: T1, Peroxisome proliferator-activated receptor alpha; assay: Displacement of fluorescein labeled ligand from PPARalpha receptor by fluorescence polarization assay
[4] = molecular target: T2, Peroxisome proliferator-activated receptor gamma; assay: (§1) Displacement of fluorescein labeled ligand from PPARgamma receptor by fluorescence polarization assay
[5] = molecular target: T3, Peroxisome proliferator-activated receptor alpha (Homo sapiens) (UniProt Q07869); assay: Intrinsic activity at PPARalpha receptor expressed in HEK293 cells at 1 uM by GAL4 transactivation assay relative to GW-2331; type: cell-based
T3 sequence (whole entry): T1 sequence (Q07869 whole entry)

[6] = molecular target: T4, Peroxisome proliferator-activated receptor gamma (Homo sapiens) (UniProt P37231); assay: as §1
T4 sequence (whole entry): T2 sequence (P37231 whole entry)

Mus musculus [7] = assay: Antidiabetic activity in db/db mouse assessed as changes in triglyceride level at 10 mg/kg, po qd for 14 days; type: functional
Mus musculus [8] = assay: Antidiabetic activity in db/db mouse assessed as changes in insulin level at 10 mg/kg, po qd for 14 days; type: functional
Mus musculus [9] = assay: Antidiabetic activity in db/db mouse assessed as changes in glucose level at 10 mg/kg, po qd for 14 days; type: functional
Mus musculus [10] = assay: Antidiabetic activity in db/db mouse assessed as changes in free fatty acid level at 10 mg/kg, po qd for 14 days; type: functional
[11] = Permeability from apical to basolateral side of Caco-2 cell membrane at pH 5.5; type: ADME, cell-based; details: human, Caco-2, pH 5.5; read-out: permeability
[12] = Permeability from apical to basolateral side of Caco-2 cell membrane at pH 7.4; type: ADME, cell-based; details: human, Caco-2, pH 7.4; read-out: permeability
[13] = Metabolic stability in mouse liver microsomes after 10 mins; type: ADME, Microsome; details: read-out: Stability
[14] = Permeability from apical to basolateral side of Caco-2 cell membrane at pH 6.5; type: ADME, cell-based; details: human, Caco-2, pH 6.5; read-out: permeability

Row | Activity [6] | Papp A→B [14] | SMILES | EC50 [1] | EC50 [2] | IC50 [3] | IC50 [4] | Intrinsic activity [5] | Activity (Mus musculus [7]) | Activity (Mus musculus [8]) | Activity (Mus musculus [9]) | Activity (Mus musculus [10]) | Papp A→B [11] | Papp A→B [12] | remaining at 10 min [13]
1 | – | – | Cc1oc(-c2ccccc2)nc1CCOc1ccc(CN(CC(=O)O)Cc2ccc3c(c2)OCO3)cc1 | 128 nM | 307 nM | 1800 nM | 3290 nM | 77% | – | – | – | – | – | – | –
2 | – | – | Cc1oc(-c2ccccc2)nc1CCOc1ccc(CN(CC(=O)O)Cc2cccc3ccccc23)cc1 | 21 nM | 840 nM | 140 nM | 767 nM | 90% | – | – | – | – | – | – | –
3 | – | – | Cc1oc(-c2ccccc2)nc1CCOc1ccc(CN(CC(=O)O)Cc2cccc(Oc3ccccc3)c2)cc1 | 4 nM | 391 nM | 88 nM | 480 nM | 107% | – | – | – | – | – | – | –
4 | inactive | – | CCC(CC)CN(CC(=O)O)Cc1ccc(OCCc2nc(-c3ccccc3)oc2C)cc1 | – | 1800 nM | – | – | 8% | – | – | – | – | – | – | –
5 | – | – | Cc1oc(-c2ccccc2)nc1CCOc1cccc(CN(CC(=O)O)Cc2ccc3ccccc3c2)c1 | 313 nM | 1390 nM | 149 nM | 145 nM | 65% | – | – | – | – | – | – | –
6 | – | – | Cc1oc(-c2ccccc2)nc1CCOc1ccc(C[C@H](Nc2ccccc2C(=O)c2ccccc2)C(=O)O)cc1 | – | – | – | – | 59% | – | – | – | – | – | – | –
7 | – | – | CCCCCCCN(CC(=O)O)Cc1ccc(OCCc2nc(-c3ccccc3)oc2C)cc1 | 180 nM | 136 nM | 1050 nM | 2300 nM | 63% | – | – | – | – | – | – | –
8 | – | – | Cc1oc(-c2ccccc2)nc1CCOc1cccc(CN(CC(=O)O)Cc2cccc(Oc3ccccc3)c2)c1 | 62 nM | 359 nM | 83 nM | 110 nM | 95% | – | – | – | – | – | – | –
9 | – | – | Cc1oc(-c2ccccc2)nc1CCOc1cccc(CN(CC(=O)O)Cc2cccc3ccccc23)c1 | 5 nM | 36 nM | 34 nM | 67 nM | 85% | – | – | – | – | – | – | –
10 | – | – | Cc1oc(-c2ccccc2)nc1CCOc1ccc(CN(CC(=O)O)Cc2ccc(-c3ccccc3Cl)o2)cc1 | 871 nM | 267 nM | 1800 nM | 280 nM | 55% | – | – | – | – | – | – | –
11 | – | – | Cc1oc(-c2ccccc2)nc1CCOc1cccc(CN(CCCc2ccccc2)CC(=O)O)c1 | 47 nM | 901 nM | 51 nM | 773 nM | 62% | – | – | – | – | – | – | –
12 | – | – | Cc1oc(-c2ccccc2)nc1CCOc1cccc(CN(CC(=O)O)Cc2ccc(Oc3ccccc3)cc2)c1 | 30 nM | 67 nM | 110 nM | 230 nM | 67% | – | – | – | – | – | – | –
13 | – | – | CCCCCCCN(CCc1ccc(O[C@@](C)(CC)C(=O)O)cc1)C(=O)Nc1ccc(F)cc1F | 71 nM | 249 nM | 348 nM | 670 nM | 79% | – | – | – | – | – | – | –
14 | – | – | Cc1oc(-c2ccccc2)nc1CCOc1cccc(CN(CC(=O)O)Cc2cc3ccccc3[nH]2)c1 | 197 nM | 759 nM | 246 nM | 540 nM | 62% | – | – | – | – | – | – | –
15 | – | – | Cc1oc(-c2ccccc2)nc1CCOc1cccc(CN(CC(=O)O)Cc2ccc(OCc3ccccc3)cc2)c1 | 324 nM | 412 nM | 387 nM | 183 nM | 56% | – | – | – | – | – | – | –
16 | – | – | COc1ccc(OC(=O)N(CC(=O)O)Cc2ccc(OCCc3nc(-c4ccccc4)oc3C)cc2)cc1 [MURAGLITAZAR] | – | – | – | – | – | -50% | -67% | -50% | -69% | – | – | –
17 | – | – | Cc1oc(-c2ccccc2)nc1CCOc1cccc(CN(CC(=O)O)Cc2ccccc2)c1 | 22 nM | 295 nM | 90 nM | 240 nM | 72% | -29% | -40% | -31% | -22% | 25.1 ×10⁻⁶ cm/s | 22.5 ×10⁻⁶ cm/s | 84%
18 | – | – | Cc1oc(-c2ccccc2)nc1CCOc1ccc(CN(CC(=O)O)Cc2ccccc2)cc1 | 4020 nM | 3600 nM | – | 1770 nM | 24% | – | – | – | – | – | – | –
19 | – | – | Cc1oc(-c2ccccc2)nc1CCOc1ccc(CN(CC(=O)O)Cc2ccc(OCc3ccccc3)cc2)cc1 | 189 nM | 221 nM | 1050 nM | 284 nM | 106% | – | – | – | – | – | – | –
20 | – | – | Cc1oc(-c2ccccc2)nc1CCOc1ccc(CN(CC(=O)O)Cc2ccc3ccccc3c2)cc1 | 618 nM | 1210 nM | 680 nM | 1210 nM | 39% | – | – | – | – | – | – | –
21 | – | – | Cc1oc(-c2ccccc2)nc1CCOc1ccc(CN(CCOCc2ccccc2)CC(=O)O)cc1 | 726 nM | 1180 nM | 1800 nM | 4560 nM | 56% | – | – | – | – | – | – | –
22 | – | < 1.5 ×10⁻⁶ cm/s | Cc1oc(-c2ccccc2)nc1CCOc1ccc(CN(CC(=O)O)Cc2ccc(Oc3ccccc3)cc2)cc1 | 35 nM | 52 nM | 970 nM | 227 nM | 59% | – | – | – | – | – | – | 46%
23 | – | – | Cc1oc(-c2ccccc2)nc1CCOc1cccc(CN(CCc2ccccc2)CC(=O)O)c1 | 44 nM | 108 nM | 75 nM | 134 nM | 82% | – | – | – | – | – | – | –
24 | – | – | Cc1oc(-c2ccccc2)nc1CCOc1ccc(CN(CC(=O)O)Cc2ccccn2)cc1 | 692 nM | 230 nM | – | 2900 nM | 12% | – | – | – | – | – | – | –
